Laboratory results published in PubChem BioAssay AID1919000 (Molecular Pharmacology Branch, DTP, NCI, 2023).

Test system: 653999-131-R-J2-PDC complex spheroids, growth % test/control
Assay: Anticancer human tumor 653999-131-R-J2-PDC patient-derived lung adenocarcinoma cell line growth inhibition [AhR]
Conditions: for IC50: curve of first compound; for viability, T/C: stronger effect = lower value
In short: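 Agents were dosed in half-log steps down from roughly clinical Cmax, or from 10 microM where Cmax was unknown, alone and with AhR antagonists. Read-out: percent test/control growth of tumor spheroids containing HUVEC and MSC stromal cells.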

[1] = second compound 0.1 µM, first compound 0.000949 µM
[2] = second compound 0.1 µM, first compound 0.003 µM
[3] = second compound 0.1 µM, first compound 0.00949 µM
[4] = second compound 0.1 µM, first compound 0.03 µM
[5] = second compound 0.1 µM, first compound 0.0949 µM
[6] = second compound 0.1 µM, first compound 0.3 µM
[7] = second compound 0.316 µM, first compound 0.000949 µM
[8] = second compound 0.316 µM, first compound 0.003 µM
[9] = second compound 0.316 µM, first compound 0.00949 µM
[10] = second compound 0.316 µM, first compound 0.03 µM
[11] = second compound 0.316 µM, first compound 0.0949 µM
[12] = second compound 0.316 µM, first compound 0.3 µM
[13] = second compound 1 µM, first compound 0.000949 µM
[14] = second compound 1 µM, first compound 0.003 µM
[15] = second compound 1 µM, first compound 0.00949 µM
[16] = second compound 1 µM, first compound 0.03 µM
[17] = second compound 1 µM, first compound 0.0949 µM
[18] = second compound 1 µM, first compound 0.3 µM
[19] = second compound 3.16 µM, first compound 0.000949 µM
[20] = second compound 3.16 µM, first compound 0.003 µM
[21] = second compound 3.16 µM, first compound 0.00949 µM
[22] = second compound 3.16 µM, first compound 0.03 µM
[23] = second compound 3.16 µM, first compound 0.0949 µM
[24] = second compound 3.16 µM, first compound 0.3 µM
[25] = second compound 10 µM, first compound 0.000949 µM
[26] = second compound 10 µM, first compound 0.003 µM
[27] = second compound 10 µM, first compound 0.00949 µM
[28] = second compound 10 µM, first compound 0.03 µM
[29] = second compound 10 µM, first compound 0.0949 µM
[30] = second compound 10 µM, first compound 0.3 µM
[31] = second compound 0.1 µM, first compound 0.0316 µM
[32] = second compound 0.1 µM, first compound 0.1 µM
[33] = second compound 0.1 µM, first compound 0.316 µM
[34] = second compound 0.1 µM, first compound 1 µM
[35] = second compound 0.1 µM, first compound 3.16 µM
[36] = second compound 0.1 µM, first compound 10 µM
[37] = second compound 0.316 µM, first compound 0.0316 µM
[38] = second compound 0.316 µM, first compound 0.1 µM
[39] = second compound 0.316 µM, first compound 0.316 µM
[40] = second compound 0.316 µM, first compound 1 µM
[41] = second compound 0.316 µM, first compound 3.16 µM
[42] = second compound 0.316 µM, first compound 10 µM
[43] = second compound 1 µM, first compound 0.0316 µM
[44] = second compound 1 µM, first compound 0.1 µM
[45] = second compound 1 µM, first compound 0.316 µM
[46] = second compound 1 µM, first compound 1 µM
[47] = second compound 1 µM, first compound 3.16 µM
[48] = second compound 1 µM, first compound 10 µM
[49] = second compound 3.16 µM, first compound 0.0316 µM
[50] = second compound 3.16 µM, first compound 0.1 µM
[51] = second compound 3.16 µM, first compound 0.316 µM
[52] = second compound 3.16 µM, first compound 1 µM
[53] = second compound 3.16 µM, first compound 3.16 µM
[54] = second compound 3.16 µM, first compound 10 µM
[55] = second compound 10 µM, first compound 0.0316 µM
[56] = second compound 10 µM, first compound 0.1 µM
[57] = second compound 10 µM, first compound 0.316 µM
[58] = second compound 10 µM, first compound 1 µM
[59] = second compound 10 µM, first compound 3.16 µM
[60] = second compound 10 µM, first compound 10 µM
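Note: spheroids exposed to agents for seven days.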
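Throughout, for viability, T/C: 100% = DMSO vehicle control viability.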

Compound `CC(C)CC(NC(=O)C(Cc1ccccc1)NC(=O)c1cnccn1)B(O)O` (stereo not given) + Cc1ccccc1N=Nc1ccc(NC(=O)c2ccnn2C)c(C)c1 has an IC50 (second compound 0.1 µM) of 20.4 nM, an IC50 (second compound 0.316 µM) of 20.2 nM and an IC50 (second compound 1 µM) of 19.6 nM. It also gave an IC50 (second compound 3.16 µM) of 20.7 nM, an IC50 (second compound 10 µM) of 22.1 nM and a viability, T/C [1] of 103%. It also gave a viability, T/C [2] of 117%, a viability, T/C [3] of 82.6% and a viability, T/C [4] of 33.1%. The viability, T/C [5] was 12.7%, the viability, T/C [6] was 4.4% and the viability, T/C [7] was 89.7%. For the same compound, the viability, T/C [8] was 116%, the viability, T/C [9] was 91% and the viability, T/C [10] was 28.3%. For the same compound, the viability, T/C [11] was 10.5%, the viability, T/C [12] was 6.14% and the viability, T/C [13] was 100%. It also gave a viability, T/C [14] of 108%, a viability, T/C [15] of 87.6% and a viability, T/C [16] of 27.4%. It also gave a viability, T/C [17] of 14.9%, a viability, T/C [18] of 6.46% and a viability, T/C [19] of 97.6%. For the same compound, the viability, T/C [20] was 96.8%, the viability, T/C [21] was 86.7% and the viability, T/C [22] was 31.8%. For the same compound, the viability, T/C [23] was 20.8%, the viability, T/C [24] was 7.43% and the viability, T/C [25] was 89.1%. For the same compound, the viability, T/C [26] was 98.1%, the viability, T/C [27] was 80% and the viability, T/C [28] was 37.8%. The viability, T/C [29] was 25.2% and the viability, T/C [30] was 11.4%.
In the case of `CCc1c2c(nc3ccc(O)cc13)-c1cc3c(c(=O)n1C2)COC(=O)[C@]3(O)CC` + Cc1ccccc1N=Nc1ccc(NC(=O)c2ccnn2C)c(C)c1, the IC50 (second compound 0.1 µM) is reported as 11.5 nM, the IC50 (second compound 0.316 µM) is reported as 10.9 nM and the IC50 (second compound 1 µM) is reported as 9.66 nM. The IC50 (second compound 3.16 µM) was 9.18 nM, the IC50 (second compound 10 µM) was 10.2 nM and the viability, T/C [1] was 94.8%. For the same compound, the viability, T/C [2] was 76.6%, the viability, T/C [3] was 51% and the viability, T/C [4] was 34.7%. It also gave a viability, T/C [5] of 29.7%, a viability, T/C [6] of 17.4% and a viability, T/C [7] of 88%. The viability, T/C [8] was 80.6%, the viability, T/C [9] was 49.7% and the viability, T/C [10] was 32.9%. It also gave a viability, T/C [11] of 30.1%, a viability, T/C [12] of 17.7% and a viability, T/C [13] of 85.6%. For the same compound, the viability, T/C [14] was 72.6%, the viability, T/C [15] was 46% and the viability, T/C [16] was 37.3%. It also gave a viability, T/C [17] of 25.4%, a viability, T/C [18] of 19.2% and a viability, T/C [19] of 81.3%. For the same compound, the viability, T/C [20] was 65%, the viability, T/C [21] was 51.3% and the viability, T/C [22] was 32.5%. For the same compound, the viability, T/C [23] was 25.2%, the viability, T/C [24] was 14.7% and the viability, T/C [25] was 73.6%. For the same compound, the viability, T/C [26] was 62.2%, the viability, T/C [27] was 49.7% and the viability, T/C [28] was 41%. The viability, T/C [29] was 27.5% and the viability, T/C [30] was 18.4%.
`Nc1ccccc1NC(=O)c1ccc(CNC(=O)OCc2cccnc2)cc1` + Cc1ccccc1N=Nc1ccc(NC(=O)c2ccnn2C)c(C)c1 was tested, and the IC50 (second compound 0.1 µM) was 2500 nM, the IC50 (second compound 0.316 µM) was 3460 nM and the IC50 (second compound 1 µM) was 2270 nM. It also gave an IC50 (second compound 3.16 µM) of 1900 nM, an IC50 (second compound 10 µM) of 3480 nM and a viability, T/C [31] of 91.9%. It also gave a viability, T/C [32] of 83%, a viability, T/C [33] of 79.2% and a viability, T/C [34] of 73.7%. It also gave a viability, T/C [35] of 43.4%, a viability, T/C [36] of 12.3% and a viability, T/C [37] of 91.4%. For the same compound, the viability, T/C [38] was 83.5%, the viability, T/C [39] was 69% and the viability, T/C [40] was 64.9%. It also gave a viability, T/C [41] of 62.3%, a viability, T/C [42] of 14.1% and a viability, T/C [43] of 83.8%. For the same compound, the viability, T/C [44] was 85.1%, the viability, T/C [45] was 70.4% and the viability, T/C [46] was 58.5%. The viability, T/C [47] was 50.4%, the viability, T/C [48] was 13.9% and the viability, T/C [49] was 89.3%. For the same compound, the viability, T/C [50] was 84.7%, the viability, T/C [51] was 70.2% and the viability, T/C [52] was 54.4%. It also gave a viability, T/C [53] of 50.5%, a viability, T/C [54] of 13.3% and a viability, T/C [55] of 86.4%. It also gave a viability, T/C [56] of 81.6%, a viability, T/C [57] of 71.4% and a viability, T/C [58] of 59.6%. It also gave a viability, T/C [59] of 63.1% and a viability, T/C [60] of 13.4%.
`O=C(c1cc(Cc2n[nH]c(=O)c3ccccc23)ccc1F)N1CCN(C(=O)C2CC2)CC1` + Cc1ccccc1N=Nc1ccc(NC(=O)c2ccnn2C)c(C)c1 was tested, and the IC50 (second compound 0.1 µM) was > 10000 nM, the IC50 (second compound 0.316 µM) was > 10000 nM and the IC50 (second compound 1 µM) was > 10000 nM. For the same compound, the IC50 (second compound 3.16 µM) was > 10000 nM, the IC50 (second compound 10 µM) was > 10000 nM and the viability, T/C [31] was 106%. For the same compound, the viability, T/C [32] was 101%, the viability, T/C [33] was 91% and the viability, T/C [34] was 92.7%. It also gave a viability, T/C [35] of 88.4%, a viability, T/C [36] of 77.6% and a viability, T/C [37] of 96.1%. For the same compound, the viability, T/C [38] was 101%, the viability, T/C [39] was 95.5% and the viability, T/C [40] was 89.3%. It also gave a viability, T/C [41] of 89.6%, a viability, T/C [42] of 84.3% and a viability, T/C [43] of 94%. For the same compound, the viability, T/C [44] was 104%, the viability, T/C [45] was 94.8% and the viability, T/C [46] was 84.2%. The viability, T/C [47] was 91.8%, the viability, T/C [48] was 82% and the viability, T/C [49] was 95.1%. For the same compound, the viability, T/C [50] was 94.9%, the viability, T/C [51] was 91.5% and the viability, T/C [52] was 87.1%. For the same compound, the viability, T/C [53] was 85%, the viability, T/C [54] was 76.2% and the viability, T/C [55] was 89.8%. The viability, T/C [56] was 88.3%, the viability, T/C [57] was 87% and the viability, T/C [58] was 82.3%. For the same compound, the viability, T/C [59] was 84.4% and the viability, T/C [60] was 72.8%.
